According to patent US5230897A, “Transdermal pentamidine” (priority 1991, dated 1993):
Values joined by “and” are separate entries in the source; they are usually repeats but may differ in a detail not shown here. Equal values may be shown once. Read-outs that look alike come from different tables or passages of the source. Blank lines part the entries; values can stand above or below the compound they belong to.

Assays:
[1] = Protocol: The in vitro studies described herein measured the rate of pentamidine transport across skin excised from a "nude" mouse. The skin is placed in a vertical two-chambered device. The skin partitions between a donor compartment containing a formulation to be tested and a receptor compartment containing the aqueous medium. The skin is clamped in place with skin epidermis facing the donor compartment. A water jacket maintains a constant temperature (37° C.).
The following pharmaceutical formulations were prepared by dissolving any dry ingredients (i.e. pentamidine isethionate, terpene, methyl paraben, propyl paraben) in the solvent (i.e. isopropyl alcohol/water or propylene glycol/water). […] Gentle stirring was then continued for the next 15 minutes or until the solution thickened. When polyquaternium-10 is the polymer heating was required to make the formulation gel.

[2] = Pentamidine pharmacokinetics after transdermal application in Rhesus monkeys (plasma, urine, residual analysis)
[3] = rhesus monkey, in vivo
[4] = Pentamidine pharmacokinetics after IV infusion in Rhesus monkeys (plasma, urine); type: in vivo
Protocol: Pentamidine was administered to four Rhesus monkeys by an IV infusion of 1 hr duration which was designed to deliver 4 mg drug/kg animal weight. Urine samples were obtained at -24 to 0 hr, 0 to 3 hr, 3 to 7 hr, 7 to 24 hr and 24 to 48 hr. Blood (2 ml) was withdrawn from an arm vein at -24 hr, 0.5 hr, 1 hr, 2 hr, 3 hr, 5 hr, 7 hr, 24 hr and 48 hr after the end of the IV infusion. Plasma was obtained from the heparinized blood by centrifugation.

SMILES: CC1=CCC(C(C)(C)O)CC1 (stereo not drawn) [α-terpineol]
- penetration enhancement for transdermal delivery of pentamidine ([1]; result in words): effective penetration enhancers

SMILES: C=C(C)[C@@H]1CC[C@@H](C)C[C@H]1O [isopulegol]
- penetration enhancement for transdermal delivery of pentamidine ([1]; result in words): effective penetration enhancers

SMILES: CC1CCC(C(C)C)C(O)C1 (stereo not drawn) [menthol]
- penetration enhancement for transdermal delivery of pentamidine ([1]; result in words): effective penetration enhancers

SMILES: C/C=C/c1ccc(OC)cc1 [t-anethole]
- penetration enhancement for transdermal delivery of pentamidine ([1]; result in words): effective penetration enhancers

SMILES: CC(C)[C@@H]1CC[C@@H](C)C[C@@H]1O (relative stereo) [neomenthol]
- penetration enhancement for transdermal delivery of pentamidine ([1]; result in words): effective penetration enhancers

SMILES: C=CC(C)(O)CCC=C(C)C (stereo not drawn) [linalol]
- penetration enhancement for transdermal delivery of pentamidine ([1]; result in words): effective penetration enhancers

SMILES: C=C(C)C1CC=C(C)C(=O)C1 (stereo not drawn) [carvone]
- penetration enhancement for transdermal delivery of pentamidine ([1]; result in words): effective penetration enhancers

SMILES: Cc1ccc(C(C)C)c(O)c1 [thymol]
- penetration enhancement for transdermal delivery of pentamidine ([1]; result in words): effective penetration enhancers

SMILES: CC(C)=CCCC(C)=CC=O [citral]
- penetration enhancement for transdermal delivery of pentamidine ([1]; result in words): effective penetration enhancers

- penetration enhancement for transdermal delivery of pentamidine ([1]; result in words): effective penetration enhancers
SMILES: C=C(C)C1CCC(C)C(=O)C1 (stereo not drawn) [dihydrocarvone]

- penetration enhancement for transdermal delivery of pentamidine ([1]; result in words): effective penetration enhancers
SMILES: CC12CCC(CC1=O)C2(C)C (stereo not drawn) [camphor]

- penetration enhancement for transdermal delivery of pentamidine [1]: effective penetration enhancers
SMILES: CC1=CCC(O)(C(C)C)CC1 (stereo not drawn) [terpene-4-ol]

- penetration enhancement for transdermal delivery of pentamidine ([1]; result in words): effective penetration enhancers
SMILES: Cc1ccc(C(C)C)cc1O [carvacrol]

SMILES: N=C(N)c1ccc(OCCCCCOc2ccc(C(=N)N)cc2)cc1 [pentamidine, 4,4'-[1,5-Pentanediylbis(oxy)]bisbenzenecarboximidamide]
- % Absolute Bioavail. ([2]; (AUCtrans/AUCiv) × (DOSEiv/DOSEtrans) × 100, individual monkeys 1, 2, 3, 4): 99.2% and 29.03% and 18.99% and 27.19%
- residual pentamidine recovered from transdermal chambers ([2]; chambers removed 24 hr after application): Only small amounts of the original dose of pentamidine were recovered
- % Dose absorbed excreted in urine, transdermal dose 0-48, Average (SD) ([2]; dose absorbed from urine % bioavailability, average of 4 monkeys): 2.26 (1.45) %
- % Dose absorbed excreted in urine, transdermal dose 0-48 ([2]; dose absorbed from urine % bioavailability, individual monkeys 1, 2, 3, 4): 2.15% and 3.88% and 2.62% and 0.38%
- % Bioavailability ([2]; dose-corrected ratio of total pentamidine excreted in urine, transdermal vs IV, individual monkeys 1, 2, 3, 4): 50.34% and 19.32% and 73.28% and 85.62%
- AUC, Trans (0-72 hr) ([2]; plasma, transdermal 292 mg, individual monkeys 1, 2, 3, 4, 4320 min): 7407 (ng/ml) h and 3426 (ng/ml) h and 2721 (ng/ml) h and 4384 (ng/ml) h
- bioavailability ([2]; rhesus monkey, plasma, topical or ocular, 292 mg, % Absolute Bioavail., Average (SD), (AUCtrans/AUCiv) × (DOSEiv/DOSEtrans) × 100, average of 4 monkeys): 43.6%
- AUC at 72 h ([2]; rhesus monkey, plasma, topical or ocular, 292 mg, AUC, Trans (0-72 hr), Average (SD), transdermal 292 mg, average of 4 monkeys): 4480 ng·h/mL
- Fa at 24 h ([2]; rhesus monkey, residual in pads, topical or ocular, 292 mg, % Absorbed (from residual analysis in the pads), Average (SD), transdermal, average of 4 monkeys): 57.7%
- bioavailability ([2]; rhesus monkey, urine, topical or ocular, 292 mg, % Bioavailability, Average (SD), dose-corrected ratio of total pentamidine excreted in urine, transdermal vs IV, average of 4 monkeys): 57.1%
- % Absorbed (from residual analysis in the pads) ([2]; transdermal, individual monkeys 1, 2, 3, 4, 1440 min): 70.9% and 54.4% and 58.8% and 46.5%
- Urine Cum. Pentam., Trans. 0-48 h, Average (SD) ([2]; urine, transdermal, average of 4 monkeys): 2.98 (1.97) mg
- Urine Cum. Pentam., Trans. 0-48 h ([2]; urine, transdermal, individual monkeys 1, 2, 3, 4): 3.16 mg and 2.18 mg and 5.61 mg and 0.95 mg
- blood levels of pentamidine by transdermal delivery [3]: effective blood levels of pentamidine can be achieved by transdermal delivery
- Total Clearance, IV dose ([4]; DOSEiv/AUCiv, individual monkeys 1, 2, 3, 4, 4 mg/kg): 39.27 lt/h and 24.18 lt/h and 20.38 lt/h and 19.38 lt/h
- AUC, IV (0-5 h) ([4]; plasma, IV 4 mg/kg, 1 hr infusion, individual monkeys 1, 2, 3, 4, 4 mg/kg, 300 min): 428 (ng/ml) h and 719 (ng/ml) h and 883 (ng/ml) h and 784 (ng/ml) h
- AUC at 5 h ([4]; rhesus monkey, plasma, iv, 4 mg/kg, AUC, IV (0-5 h), Average (SD), IV 4 mg/kg, 1 hr infusion, average of 4 monkeys): 704 ng·h/mL
- clearance ([4]; rhesus monkey, plasma, iv, 4 mg/kg, DOSEiv/AUCiv, average of 4 monkeys, read-out: Total Clearance, IV dose, Average (SD) (converted)): 430 mL/min
- dose excreted at 48 h ([4]; rhesus monkey, urine, iv, 4 mg/kg, IV, average of 4 monkeys, read-out: % Dose excreted in urine, IV dose 0-48 h, Average (SD)): 2.28%
- CL renal at 48 h ([4]; rhesus monkey, urine, iv, 4 mg/kg, amount in urine (0-48 h)/AUCiv, average of 4 monkeys, read-out: Renal Clearance, IV dose, Average (SD) (converted)): 10 mL/min
- Urine Cum. Pentam., IV 0-48 h, Average (SD) ([4]; urine, IV, average of 4 monkeys): 0.39 (0.27) mg
- Urine Cum. Pentam., IV 0-48 h ([4]; urine, IV, individual monkeys 1, 2, 3, 4): 0.360 mg and 0.691 mg and 0.473 mg and 0.054 mg

SMILES: CC(C)=C1CC[C@@H](C)CC1=O [pulegone]
- penetration enhancement for transdermal delivery of pentamidine ([1]; result in words): effective penetration enhancers

SMILES: CC(C)[C@@H]1CC[C@@H](C)CC1=O [menthone]
- penetration enhancement for transdermal delivery of pentamidine ([1]; result in words): effective penetration enhancers

- penetration enhancement for transdermal delivery of pentamidine [1]: effective penetration enhancers
SMILES: C=C(C)C1CC=C(C)[C@@H](O)C1 (stereo partly drawn) [carveol]

- penetration enhancement for transdermal delivery of pentamidine ([1]; result in words): effective penetration enhancers
SMILES: C=C(C)C1CCC(C)C(O)C1 (stereo not drawn) [dihydrocarveol]
